Laboratory results: EP0182152B1, “Antitumor antibiotics (LL-E33288 Complex)” (AMERICAN CYANAMID COMPANY, priority 1984, dated 1986)

Columns and labels:
Format in all cases: in vivo, BDF1 mice
melanotic melanoma B16 = test: Melanotic Melanoma B16 Test
Text: (§1) Certain in vivo testing systems and protocols have been developed by the National Cancer Institute for testing compounds to determine their suitability as anti-neoplastic agents. These have been reported in "Cancer Chemotherapy Reports", Part III, Vol. 3, No. 2 (1972), Geran, et al. These protocols have established standardized screening tests which are generally followed in the field of testing for antitumor agents. Of these systems, lymphocytic leukemia P388, melanotic melanoma B16, L1210 leukemia and colon 26 adenocarcinoma are particularly significant to the present invention. These neoplasms are utilized for testing as transplantable tumors in mice. Generally, significant anti-tumor activity, shown in these protocols by a percentage increase of mean survival times of the treated animals (T) over the control animals (C), is indicative of similar results in human leukemias and solid tumors.
The animals used were BDF1 mice, all of the same sex, weighing a minimum of 17 g and all within a 3 g weight range. There are normally 6 animals per test group. A 1 g portion of melanotic melanoma β16 tumor was homogenized in 10 ml of cold balanced salt solution and a 0.5 ml aliquot of the homogenate was implanted intraperitoneally into each of the test mice. LL-E33288 antibiotics were tested in the β16 system both as the individual β1-Br and γ1-Br components and as a complex of all components (Bromo-complex). The test compounds were administered intraperitioneally on days 1 through 9 (relative to tumor inoculation) at various doses. The mice were weighed and survivors recorded on a regular basis for 60 days. The median survival time and the ratio of survival time for treated (T)/control (C) animals were calculated. The positive control compounds were Cisplatin or Adriamycin. The results of this test appear in Table V. If T/C X 100 (%) is 125 or over, the tested compound is considered to have significant anti-tumor activity.
(§2) In the same manner, the following iodo-components were tested for antineoplastic activity.

[1] = system: lymphocytic leukemia L1210; test: Lymphocytic Leukemia L1210 Test
Text: as §1
The animals used were BDF1 mice, all of one sex, weighing a minimum of 17 g and all within a 3 g weight range. There were 6 mice in each test group and 18 in control groups. The tumor transplant was by intraperitoneal injection of 0.5 ml of lymphocytic leukemia L1210 at a concentration of 10^5 cells per mouse. LL-E33288 antibiotics were tested in the L1210 system both as the individual β1-Br component and as a complex of all components (Bromo-complex). The test compounds were administered on days 1, 5 and 9 or days 1 through 9 (relative to tumor inoculation) at various doses. The mice were weighed and survivors recorded on a regular basis for 30 days. The median survival time and the ratio of survival time for treated (T)/control (C) animals were calculated. The positive control compound was 1,4-dihydroxy-5,8-bis[[2-(2-hydroxyethylamino)ethyl]amino]anthraquinone dihydrochloride or Cisplatin given intraperitoneally at the indicated dose. If T/C X 100 (%) is 125 or over, the tested compound is considered to have significant anti-tumor activity.
as §2

[2] = system: lymphocytic leukemia P388; test: Lymphocytic Leukemia P388 Test; conditions: Table IX
Text: as §1
The animals used were BDF1 mice, all of one sex, weighing a minimum of 17 g and all within a 3 g weight range. There were 5 or 6 mice per test group. The tumor transplant was by intraperitoneal injection of 0.5 ml of dilute ascitic fluid containing 10^6 cells of lymphocytic leukemia P388. LL-E33288 antibiotics were tested in the P388 system both as the individual β1-Br and […] components and as a complex of all components (Bromo-complex). The test compounds were administered intrapertioneally at a volume of 0.5 ml in 0.2% Klucel in normal saline on days 1, 5 and 9 (relative to tumor inoculation) at the indicated doses. The mice were weighed and the survivors recorded on a regular basis for 30 days. The median survival time and the ratio of survival time for treated (T)/control (C) animals were calculated. The positive control compound was Cisplatin given as an intraperitioneal injection in 0.5 ml of 0.2% Klucel on days 1, 5 and 9 at the indicated doses.
If T/C X 100 (%) is 125 or over, the tested compound is considered to have significant anti-tumor activity.
as §2

[3] = Table V, dose 0.4 mg/kg, control 19 days, survivors recorded for 60 days
[4] = Table V, dose 0.8 mg/kg, control 19 days, survivors recorded for 60 days
[5] = Table X, dose 0.2 mg/kg, control value not given
[6] = Table X, dose 0.4 mg/kg, control value not given
[7] = Table X, dose 0.8 mg/kg, control value not given
[8] = Table VI, days 1, 5 and 9 or days 1 through 9, dose 0.4 mg/kg, control 16.7 days
[9] = Table VI, days 1, 5 and 9 or days 1 through 9, dose 0.8 mg/kg, control 16.7 days
[10] = Table VI, i.p., dose 1.6 mg/kg, control 16.7 days
[11] = Table XI, dose 0.4 mg/kg, control 9 days
[12] = Table XI, dose 0.8 mg/kg, control 9 days
[13] = Table XI, dose 1.6 mg/kg, control 9 days
[14] = Table XI, dose 3.2 mg/kg, control 9 days
[15] = Test 1, dose 1.6 mg/kg, control 13 days
[16] = Test 2, dose 0.8 mg/kg, control 11 days
[17] = Test 2, dose 1.6 mg/kg, control 11 days

With `COc1cccc2c1C(=O)c1c(O)c3c(c(O)c1C2=O)C[C@@](O)(C(=O)CO)C[C@@H]3O[C@H]1C[C@H](N)[C@H](O)[C@H](C)O1` [Adriamycin] the “Median Survival” value (melanotic melanoma B16; [3]) was > 60 days, the “T/C x 100” value (melanotic melanoma B16; [3]) was > 316% and the “Median Survival” value (melanotic melanoma B16; [4]) was > 60 days. The “T/C x 100” value (melanotic melanoma B16; [4]) was > 316%, the “Median Survival” value (melanotic melanoma B16; [5]) was 34.5 days and the “T/C x 100” value (melanotic melanoma B16; [5]) was 203%. The “Median Survival” value (melanotic melanoma B16; [6]) was 40 days, the “T/C x 100” value (melanotic melanoma B16; [6]) was 235% and the “Median Survival” value (melanotic melanoma B16; [7]) was 48 days. The “T/C x 100” value (melanotic melanoma B16; [7]) was 282%.

For `Cl.Cl.O=C1c2c(O)ccc(O)c2C(=O)c2c(NCCNCCO)ccc(NCCNCCO)c21` [Novantrone®, 1,4-dihydroxy-5,8-bis[[2-(2-hydroxyethylamino)ethyl]amino]anthraquinone dihydrochloride], the “Median Survival” value [1, 8] was 30 days, the “T/C x 100” value [1, 8] was 180% and the “Median Survival” value [1, 9] was 30 days. For the same compound, the “T/C x 100” value [1, 9] was 180%, the “Median Survival” value [1, 10] was 30 days and the “T/C x 100” value [1, 10] was 180%. For the same compound, the “Median Survival” value [1, 11] was 11 days, the “T/C x 100” value [1, 11] was 122% and the “Median Survival” value [1, 12] was 12 days. The “T/C x 100” value [1, 12] was 133%, the “Median Survival” value [1, 13] was 11.5 days and the “T/C x 100” value [1, 13] was 128%. The “Median Survival” value [1, 14] was 15 days, the “T/C x 100” value [1, 14] was 167% and the “Median Survival” value [2, 15] was 22.5 days. For the same compound, the “T/C x 100” value [2, 15] was 173%, the “Median Survival” value [2, 16] was 16 days and the “T/C x 100” value [2, 16] was 145%. The “Median Survival” value [2, 17] was 19 days and the “T/C x 100” value [2, 17] was 173%.
